Measurements reported in the supplement of paper PMC10599287.

What was measured:
[1] = compound: CCNC(=O)C#Cc1ccc2c(C(=Nc3ccc(CN(C)C)cc3)c3ccccc3)c(O)[nH]c2c1; experiment: absolute IC70 (antiproliferative, propidium iodide); higher = less potent; details: exposure time: 4 days
Description: (§1)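 Modified propidium iodide survival/proliferation assay in 294 human tumor cell lines (2D monolayer for solid tumors, suspension for hematologic lines) after 4 days of continuous exposure to 10 concentrations in half-log steps from 0.001 to 30 µM. Absolute IC70 was fitted by four-parameter nonlinear regression of T/C × 100 (%) values; 30 µM is the top dose.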

[2] = compound: O=C(NOCCO)c1ccc2cncn2c1Nc1ccc(I)cc1F [GDC-0623]; experiment: as above; details: exposure time: 4 days
Description: as §1

Row | Test System | absolute IC70 [1] | absolute IC70 [2]
1 | EFO-21 | 2140 nM | > 30000 nM
2 | PC-3M | 161 nM | > 30000 nM
3 | UOC-M1 | 12 nM | > 30000 nM
4 | T24 | 353 nM | 46 nM
5 | PAXF_1986 | 414 nM | 92 nM
6 | U-2197 | 2770 nM | > 30000 nM
7 | DU-145 | 569 nM | 1240 nM
8 | PA-TU-8988T | 773 nM | > 30000 nM
9 | LXFA_737 | 225 nM | > 30000 nM
10 | OVCAR-3 | 26100 nM | > 30000 nM
11 | RXF_2516 | 164 nM | 8070 nM
12 | SK-GT-2 | 2800 nM | > 30000 nM
13 | KYSE-520 | 525 nM | 158 nM
14 | UXF_1138 | 6 nM | > 30000 nM
15 | GXF_23132 | 20600 nM | > 30000 nM
16 | Saos-2 | 593 nM | > 30000 nM
17 | HUP-T3 | 291 nM | 44 nM
18 | SW403 | 841 nM | 7.71 nM
19 | ACHN | 765 nM | > 30000 nM
20 | NCI-H322M | 391 nM | 105 nM
21 | NCI-H345 | 11800 nM | > 30000 nM
22 | SK-LMS-1 | 937 nM | 368 nM

Row | Test System | absolute IC70 [1] | absolute IC70 [2]
23 | THP-1 | 84 nM | 47 nM
24 | MCF7 | 281 nM | > 30000 nM
25 | LIXFC_575 | 654 nM | 3010 nM
26 | OCI-AML2 | 7 nM | < 1 nM
27 | HCC2998 | 896 nM | 257 nM
28 | MDA-MB-231 | 120 nM | 78 nM
29 | CAKI-1 | 2360 nM | > 30000 nM
30 | SF268 | 1330 nM | > 30000 nM
31 | MIA-PaCa-2 | 103 nM | 5 nM
32 | HPAF-II | 285 nM | 79 nM
33 | SN12C | 665 nM | 2960 nM
34 | OVXF_1023 | 14200 nM | > 30000 nM
35 | HCT116 | 51 nM | 84 nM
36 | NCI-H929 | 43 nM | 10 nM
37 | SISO | 715 nM | > 30000 nM
38 | MDA-MB-468 | 347 nM | 2240 nM
39 | OVCAR-4 | 4280 nM | > 30000 nM
40 | MOLT-4 | 4 nM | > 30000 nM
41 | CXF_260 | 324 nM | 194 nM
42 | CAL-51 | 61 nM | > 30000 nM
43 | BXF_1228 | 3230 nM | > 30000 nM
44 | LIM2551 | 7.49 nM | 3.68 nM

Row | Test System | absolute IC70 [1] | absolute IC70 [2]
45 | LXFA_629 | 750 nM | > 30000 nM
46 | GXA_3067 | 583 nM | 265 nM
47 | Hs 729 | 8020 nM | > 30000 nM
48 | TK10 | 873 nM | > 30000 nM
49 | MEXF_394 | 42 nM | 4 nM
50 | MOLM-1 | 1590 nM | > 30000 nM
51 | RPMI-2650 | 2150 nM | > 30000 nM
52 | PXF_1752 | 1860 nM | > 30000 nM
53 | CXF_1103 | 11 nM | 427 nM
54 | NUGC-4 | 329 nM | 8 nM
55 | U-2-OS | 162 nM | 530 nM
56 | CAL-33 | 346 nM | 517 nM
57 | LXFA_586 | 106 nM | > 30000 nM
58 | MFE-319 | 370 nM | 5170 nM
59 | GXA_3011 | 97 nM | > 30000 nM
60 | NCI-H82 | 2330 nM | > 30000 nM
61 | BXF_5637 | 20 nM | 359 nM
62 | LEXFAL_2665 | 223 nM | > 30000 nM
63 | HL-60 | 27 nM | 6 nM
64 | A-431 | 30 nM | 563 nM
65 | LXFA_526 | 739 nM | 1320 nM
66 | NOMO-1 | 10 nM | > 30000 nM

Row | Test System | absolute IC70 [1] | absolute IC70 [2]
67 | SXFS_1301 | 3850 nM | > 30000 nM
68 | OVXF_899 | 457 nM | 14700 nM
69 | SNU-878 | 9320 nM | 18800 nM
70 | VCAP | 5020 nM | > 30000 nM
71 | KYSE-150 | 2820 nM | > 30000 nM
72 | NCI-H1975 | 409 nM | > 30000 nM
73 | HT-29 | 392 nM | 87 nM
74 | GXA_3080 | 114 nM | 117 nM
75 | LXFL_1674 | 1050 nM | > 30000 nM
76 | HCT-15 | 1440 nM | > 30000 nM
77 | HEC-1-A | 1580 nM | > 30000 nM
78 | A172 | 252 nM | 1590 nM
79 | DoTc2-4510 | 260 nM | > 30000 nM
80 | MSTO-211H | 494 nM | 1480 nM
81 | IGROV-1 | 1870 nM | > 30000 nM
82 | RAMOS | 507 nM | > 30000 nM
83 | LXFA_289 | 1790 nM | > 30000 nM
84 | SCLC-21H | 31 nM | > 30000 nM
85 | OPM-2 | 336 nM | > 30000 nM
86 | MOLP-2 | 3650 nM | > 30000 nM
87 | RXF_486 | 816 nM | 239 nM
88 | MKN7 | 17500 nM | > 30000 nM

Row | Test System | absolute IC70 [1] | absolute IC70 [2]
89 | PA-TU-8902 | 913 nM | > 30000 nM
90 | SU-DHL-4 | 220 nM | > 30000 nM
91 | RXF_1781 | 309 nM | 7380 nM
92 | NCI-H441 | 1340 nM | > 30000 nM
93 | SK-MES-1 | 617 nM | 235 nM
94 | RAJI | 4790 nM | > 30000 nM
95 | RCH-ACV | 6 nM | > 30000 nM
96 | KCL-22 | 250 nM | > 30000 nM
97 | MEXF_1341 | 482 nM | 26 nM
98 | RH-30 | 794 nM | 24600 nM
99 | CXF_280 | 1550 nM | > 30000 nM
100 | LXFL_1072 | 481 nM | 16200 nM
101 | 786-O | 1170 nM | > 30000 nM
102 | PAXF_2035 | 855 nM | 17200 nM
103 | SXFO_678 | 87 nM | > 30000 nM
104 | MEXF_2090 | 93 nM | 4 nM
105 | SNU-16 | 15400 nM | > 30000 nM
106 | COLO-320 | 2110 nM | > 30000 nM
107 | BT-549 | 1780 nM | > 30000 nM
108 | BXF_1352 | 45 nM | 11 nM
109 | MEXF_535 | 99 nM | 5 nM
110 | CNXF_498 | 5620 nM | > 30000 nM

Row | Test System | absolute IC70 [1] | absolute IC70 [2]
111 | SK-OV-3 | 13400 nM | > 30000 nM
112 | OCI-LY18 | 494 nM | > 30000 nM
113 | Caco-2 | 4760 nM | > 30000 nM
114 | LP-1 | 2160 nM | > 30000 nM
115 | MOLT-3 | 6 nM | > 30000 nM
116 | SiHa | 4800 nM | > 30000 nM
117 | LEXFAM_2531 | 26 nM | > 30000 nM
118 | JURKAT | 2330 nM | > 30000 nM
119 | DETROIT562 | 3090 nM | > 30000 nM
120 | NCI-H727 | 325 nM | 23 nM
121 | SNU-423 | 1320 nM | > 30000 nM
122 | SW579 | 279 nM | 204 nM
123 | KU-19-19 | 56 nM | 22 nM
124 | HCC1937 | 475 nM | > 30000 nM
125 | GXA_3023 | 69 nM | 1440 nM
126 | GXF_1172 | 510 nM | 1270 nM
127 | U-937 | 348 nM | > 30000 nM
128 | FU97 | 6600 nM | > 30000 nM
129 | IM-9 | 7 nM | 15 nM
130 | SW1463 | 323 nM | 14.3 nM
131 | MEXF_462 | 25 nM | 7170 nM
132 | LIM2405 | 31.6 nM | 5.96 nM
